Test results as given in PMC9757636, “The effectiveness of newly synthesized quaternary ammonium salts differing in chain length and type of counterion against priority human pathogens” (Scientific Reports, 2022).
Read-outs that look alike come from different tables or passages of the source. Marks after values point to notes of the source that are not given here.

What was measured:
[1] = system: S. epidermidis ATCC 35984 biofilm; assay: Biofilm eradication; type: cell-based, Staphylococcus epidermidis; details: 10 µM, 4 h
Protocol: (§1) Biofilm eradication assay was performed according to the method of Christensen et al. with modifications. A standardized bacterial (OD = 0.6) suspension of 100 µL was spotted into a 96-well polystyrene plate. They were incubated for 24 h at 37 °C. Cultures were removed, the plate was washed and then concentrations of QAS ([…]) were added, incubated for 4 h at 37 °C with 100 rpm shaking. The wells were washed with miliQ and fixed at 60 °C for 20 min. The wells were […] with 0.1% crystal violet solution for 5 min. The wells were washed with miliQ until the unfixed dye was completely eluted. The absorbance at λ = 590 nm was measured using a reader (Bio-Rad Universal Hood II). The positive control was an untreated biofilm. Three independent test trials were performed.

S. epidermidis SI8 = assay: MIC/MBC microdilution; type: cell-based, Staphylococcus epidermidis; details: for MBC: 99.9% reduction, read-out: Minimal bactericidal concentration (*MBC); for MIC: 24 h, 37 °C, >90% growth inhibition, read-out: Minimal inhibitory concentration (MIC)
Protocol: (§2) The minimum inhibitory concentration (MIC) of the tested monomeric QAS was performed using the microdilution method according to CLSI recommendation (M27-A3). Concentrations from 10 to 1280 µM were analyzed. Strains were incubated with or without compounds (growth control) for 24 h at 37 °C. Three independent replicates were performed. The MIC value was determined spectrophotometrically and the concentration that inhibited more than 90% of growth was determined. Optical density was measured at λ = 590 nm using a 96-well microplate reader (Bio-Rad Universal Hood II).
(§3) To determine the minimum bactericidal concentration (MBC), 10 µL of bacterial suspension incubated with monomeric QAS (MIC concentration and two times higher) was transferred to plates with LB (1% tryptone, 1% yeast extract, 0.5% NaCl) medium. […] The concentration that reduced 99.9% of microbial growth was determined as MBC[54].

S. epidermidis B374 [2] = assay: MIC/MBC microdilution; type: cell-based, Staphylococcus epidermidis
Protocol: as §2, §3

[3] = system: S. epidermidis ATCC 35984; assay: MIC/MBC microdilution; type: cell-based, Staphylococcus epidermidis; details: for MBC: read-out: Minimal bactericidal concentration (*MBC); for MIC: 37 °C, >90% growth inhibition, read-out: Minimal inhibitory concentration (MIC)
Protocol: as §2, §3

[4] = Critical micelle concentration by conductometric measurements; type: physicochemical; details: aqueous solution, 25 °C
Protocol: Values of critical micelle concentrations (CMC) of cationic surfactants were measured conductrometrically. N5721 conductometer (Tel-Eko Projekt sp z o.o., Poland), equipped with N5981 probe, was calibrated using 0.1 M, 0.01 M and 0.001 M KCl aqueous solutions (conductivities equal to 1.287 S/m, 0.141 S/m and 0.0147 S/m, respectively) and used without temperature compensation mode (constant temperature 25 °C was kept during all calibration procedures and measurements). Values of specific conductivities of at least 15 different concentrations for each surfactant were measured and plotted versus concentration; the discontinuity point was used to determine critical micelle concentration.

E. coli ATCC 11229 = assay: MIC/MBC microdilution; type: cell-based, Escherichia coli
Protocol: as §2, §3

E. coli H64 = assay: MIC/MBC microdilution; type: cell-based, Escherichia coli; details: for MIC / MBC: Escherichia coli; for MIC: H64, 24 h, read-out: Minimal inhibitory concentration (MIC); for MBC: H64, E. coli H64, read-out: Minimal bactericidal concentration (*MBC)
Protocol: as §2, §3

[5] = system: S. epidermidis ATCC 35984; assay: Adhesion to stainless steel; type: cell-based, Staphylococcus epidermidis; details: 1280 µM
[6] = system: Salmonella typhimurium TA98; assay: Mutagenicity (Ames test); type: cell-based; details: for Number of colonies: ± SD
Protocol: (§4) Two reference strains of Salmonella Typhimurium TA98 and Salmonella Typhimurium TA100, deficient in histidine synthesis, were used for this study according to the method proposed by Ames et al. with modifications. […] The mixture was mixed and poured onto a Davis minimal medium plate. The mixture without the test compound was used as a negative control. The positive control was a mixture of bacterial culture, biotin-histidine solution, and sodium azide (at a concentration of 15 μg/mL for strain TA100) or acriflavine (at a concentration of 100 μg/mL for strain TA98). Plates were incubated for 48 h at 37 °C, and then colonies were counted. The mutagenicity ratio (MR), the ratio of the number of revertants grown in the presence of the test compound to the number of spontaneously occurring revertants (negative control), was calculated. A mutagenic ratio equal to or greater than 1.7 indicates the mutagenic potential of the tested compounds. The study was performed in three times.

[7] = system: Salmonella typhimurium TA100; assay: Mutagenicity (Ames test); type: cell-based; details: for Number of colonies: ± SD
Protocol: as §4

P. aeruginosa PAO1 [8] = assay: Adhesion to stainless steel; type: cell-based, Pseudomonas aeruginosa; details: P. aeruginosa PAO1; 1280 µM
P. aeruginosa PAO1 [9] = assay: MIC/MBC microdilution; type: cell-based, Pseudomonas aeruginosa; details: for MBC / MIC: Pseudomonas aeruginosa; for MBC: read-out: Minimal bactericidal concentration (*MBC); for MIC: read-out: Minimal inhibitory concentration (MIC)
Protocol: as §2, §3

P. aeruginosa ATCC 27853 = assay: MIC/MBC microdilution; type: cell-based, Pseudomonas aeruginosa; details: for MIC / MBC: Pseudomonas aeruginosa; for MIC: ATCC27853, 24 h, read-out: Minimal inhibitory concentration (MIC); for MBC: ATCC27853, P. aeruginosa ATCC 27853, read-out: Minimal bactericidal concentration (*MBC)
Protocol: as §2, §3

S. aureus MRSA R98 = assay: MIC/MBC microdilution; type: cell-based, Staphylococcus aureus; details: for MBC / MIC: Staphylococcus aureus, MRSA; for MBC: read-out: Minimal bactericidal concentration (*MBC); for MIC: read-out: Minimal inhibitory concentration (MIC)
Protocol: as §2, §3

S. aureus ATCC 6538 = assay: MIC/MBC microdilution; type: cell-based, Staphylococcus aureus; details: for MIC: 24 h, 37 °C, >90% growth inhibition, read-out: Minimal inhibitory concentration (MIC); for MBC: 99.9% reduction, read-out: Minimal bactericidal concentration (*MBC)
Protocol: as §2, §3

[10] = system: S. epidermidis B374 biofilm; assay: Biofilm eradication; type: cell-based, Staphylococcus epidermidis; details: 160 µM, 4 h
Protocol: as §1

S. epidermidis B374 [11] = assay: Adhesion to polystyrene plate; type: cell-based, Staphylococcus epidermidis; details: 1280 µM
Protocol: (§5) Adhesion analysis to polystyrene surfaces was determined according to the method of Rodrigues et al. with modifications. Polystyrene 96-well plates were incubated with the respective compound concentrations (10–1280 µM) for 4 h at 37 °C with 100 rpm shaking. The plates were then washed with miliQ and inoculated with 100 µL of bacterial suspension (OD = 0.4–0.6). Plates were incubated for 6 h at 37 °C with 100 rpm shaking. Wells were rinsed and fixed for 20 min at 60 °C. They were then […] with 0.1% crystal violet solution for 5 min. The wells were washed with miliQ until the unfixed dye was completely eluted. The absorbance at λ = 590 nm was measured using a reader (Bio-Rad Universal Hood II). The positive control was a surface not treated with QAS. Three independent trials were performed.

[12] = system: S. epidermidis ATCC 35984; assay: Adhesion to polystyrene plate; type: cell-based, Staphylococcus epidermidis; details: 1280 µM, range given over two strains
Protocol: as §5

S. epidermidis B374 [13] = assay: Adhesion to stainless steel; type: cell-based, Staphylococcus epidermidis; details: 1280 µM, ranges given over several strains
P. aeruginosa PAO1 [14] = assay: Adhesion to glass; type: cell-based, Pseudomonas aeruginosa; details: concentration not given
[15] = Staphylococcus epidermidis, ATCC35984, 99.9% reduction
[16] = Staphylococcus epidermidis, ATCC35984, 24 h
[17] = E. coli H64, 24 h, 37 °C, >90% growth inhibition
[18] = 24 h, 37 °C, >90% growth inhibition
[19] = P. aeruginosa ATCC 27853, 24 h, 37 °C, >90% growth inhibition
[20] = Staphylococcus aureus, ATCC6538, 24 h, S. aureus ATCC 6538
[21] = Staphylococcus aureus, ATCC6538, S. aureus ATCC 6538
[22] = E. coli ATCC 11229, 99.9% reduction
[23] = E. coli ATCC 11229, 24 h, 37 °C, >90% growth inhibition

SMILES | MBC (S. epidermidis SI8; Staphylococcus epidermidis) [µM] | MIC (S. epidermidis SI8; Staphylococcus epidermidis) [µM] | MBC [3, 15] [µM] | MIC [3, 16] [µM] | CMC [4] [mol/L] | MIC (E. coli H64; [17]) [µM] | MBC (E. coli H64; 99.9% reduction) [µM] | adhesion to stainless steel (remaining) [5] [%] | Mutagenicity index ([6]; ¼ MIC) | Number of colonies ([6]; ¼ MIC) | Mutagenicity index ([6]; ½ MIC) | Number of colonies ([6]; ½ MIC) | Mutagenicity index ([7]; ¼ MIC) | Number of colonies ([7]; ¼ MIC) | Mutagenicity index ([7]; ½ MIC) | Number of colonies ([7]; ½ MIC) | MBC (P. aeruginosa PAO1 [9]; 99.9% reduction) [µM] | MIC (P. aeruginosa PAO1 [9]; [18]) [µM] | MIC (P. aeruginosa ATCC 27853; [19]) [µM] | MBC (P. aeruginosa ATCC 27853; 99.9% reduction) [µM] | also measured
CC(=O)[O-].CCCCCCCCCCCC(=O)N(C)CCC[N+](C)(C)C [AcC12] | 640 | 640 | 640 | 640 | 0.018 | 1280 | 1280 | 13 to 30 | 0.96 | 22 ± 5.3 | 0.91 | 20.8 ± 4.4 | 0.94 | 264.7 ± 15 | 1.08 | 304 ± 11.3 | > 1280 | > 1280 | > 1280 | > 1280 | biofilm destruction [1]: approximately 40%; MIC (S. epidermidis B374 [2]; Staphylococcus epidermidis, B374, 24 h, S. epidermidis B374, 24 h, 37 °C, >90% growth inhibition, read-out: Minimal inhibitory concentration (MIC)): 320 µM; MBC (S. epidermidis B374 [2]; Staphylococcus epidermidis, B374, S. epidermidis B374, 99.9% reduction, read-out: Minimal bactericidal concentration (*MBC)): 320 µM; MIC (E. coli ATCC 11229; Escherichia coli, ATCC11229, 24 h, E. coli ATCC 11229, 24 h, 37 °C, >90% growth inhibition, read-out: Minimal inhibitory concentration (MIC)): 1280 µM; MBC (E. coli ATCC 11229; Escherichia coli, ATCC11229, E. coli ATCC 11229, 99.9% reduction, read-out: Minimal bactericidal concentration (*MBC)): 1280 µM; adhesion to stainless steel (remaining) (P. aeruginosa PAO1 [8]): 13 to 30%; MBC (S. aureus MRSA R98; 99.9% reduction): 640 µM; MIC (S. aureus MRSA R98; [18]): 640 µM; MIC (S. aureus ATCC 6538; [20]): 1280 µM; MBC (S. aureus ATCC 6538; [21]): 1280 µM
CC(=O)[O-].CCCCCCCCCCCCCC(=O)N(C)CCC[N+](C)(C)C [AcC14, [(3-tetradecyilomethylo-amine)propyl] trimethylammonium acetate] | 160 | 160 | 160 | 160 | 0.0054 | 160 | 160 | 15 | 0.96 | 24.5 ± 3.5 | 1.01 | 25.7 ± 4 | 0.97 | 194 ± 1 | 0.95 | 189 ± 1.4 | > 1280 | > 1280 | 1280 | > 1280 | biofilm eradication [10]: 70–80%; Minimal bactericidal concentration (*MBC) (S. epidermidis B374 [2]; S. epidermidis B374, 99.9% reduction): 40 *40 µM; Minimal inhibitory concentration (MIC) (S. epidermidis B374 [2]; S. epidermidis B374, 24 h, 37 °C, >90% growth inhibition): 40 *40 µM; Minimal bactericidal concentration (*MBC) (E. coli ATCC 11229; [22]): 320 *320 µM; Minimal inhibitory concentration (MIC) (E. coli ATCC 11229; [23]): 320 *320 µM; MBC (S. aureus MRSA R98; 99.9% reduction): 160 µM; MIC (S. aureus MRSA R98; [18]): 160 µM; MIC (S. aureus ATCC 6538; [20]): 160 µM; MBC (S. aureus ATCC 6538; [21]): 160 µM
CCCCCCCCCCCCN(C)CCC[N+](C)(C)C.COC(=O)[O-] [MeC12, [(3-dodecyilomethyloamine)propyl] trimethylammonium methylcarbonate] |  |  |  |  | 0.014 |  |  |  | 0.75 | 17 ± 3.6 | 0.92 | 21 ± 3.6 | 0.74 | 208 ± 17 | 0.94 | 264 ± 11.3 |  |  |  |  | reduced adhesion to polystyrene (S. epidermidis B374 [11]): 25–46%; reduced adhesion to polystyrene [12]: 25–46%; inhibition of adhesion to stainless steel (S. epidermidis B374 [13]): 69–88%; reduction of adhesion to glass (P. aeruginosa PAO1 [14]): approximately 20%; MBC (S. epidermidis SI8): 640 µM; MIC (S. epidermidis SI8): 320 µM; MBC ([3]; 99.9% reduction): 640 µM; MIC ([3]; 24 h): 320 µM; Minimal bactericidal concentration (*MBC) (E. coli ATCC 11229; [22]): 640 *640 µM; Minimal inhibitory concentration (MIC) (E. coli ATCC 11229; [23]): 640 *640 µM; Minimal bactericidal concentration (*MBC) (E. coli H64; E. coli H64, 99.9% reduction): 640 *640 µM; Minimal inhibitory concentration (MIC) (E. coli H64; [17]): 640 *640 µM; Minimal bactericidal concentration (*MBC) (P. aeruginosa PAO1 [9]; 99.9% reduction): > 1280 * > 1280 µM; Minimal inhibitory concentration (MIC) (P. aeruginosa PAO1 [9]; [18]): > 1280 * > 1280 µM; Minimal bactericidal concentration (*MBC) (P. aeruginosa ATCC 27853; P. aeruginosa ATCC 27853, 99.9% reduction): > 1280 * > 1280 µM; Minimal inhibitory concentration (MIC) (P. aeruginosa ATCC 27853; [19]): > 1280 * > 1280 µM; Minimal bactericidal concentration (*MBC) (S. aureus MRSA R98; 99.9% reduction): 640 *640 µM; Minimal inhibitory concentration (MIC) (S. aureus MRSA R98; [18]): 640 *640 µM; MBC (S. aureus ATCC 6538; S. aureus ATCC 6538): 640 µM; MIC (S. aureus ATCC 6538; S. aureus ATCC 6538): 320 µM
